Source: patent US20240251785A1, “SMALL MOLECULE ANTAGONISTS AND AGONISTS OF ARTHROPOD KININ RECEPTORS FOR PEST CONTROL” (The Texas A&M University System, priority 2021, published 2024)
Read-outs that look alike come from different tables or passages of the source.

Legend:
[1] = target: recombinant tick kinin receptor (BMLK3) (Rhipicephalus microplus, UniProt Q9NHA4); assay: Dose-response dual-addition calcium fluorescence assay on BMLK3 cells; type: cell-based; settings: for EC50: read-out: BMLK3 EC50
[2] = system: vector-only (V/O) CHO-K1 cells; assay: Dose-response dual-addition calcium fluorescence assay on vector-only cells; type: cell-based
[3] = system: Human dermal fibroblasts (HDF) cells; assay: Cytotoxicity assay (resazurin); type: cell-based; settings: Human dermal fibroblasts cells; tested at 20 μcool L^−1
[4] = system: isolated hindguts from females of the mosquito Aedes aegypti; assay: Hindgut contraction inhibition assay; settings: for effect on hindgut contraction elicited by 1728, in words: compound 100 μmol L^−1, 5 min, then 1728 10 μmol L^−1, 1 h
Protocol: A mosquito colony of Ae. aegypti (Diptera: Culicidae), Liverpool strain, was maintained at 26.5° C. in a 16 h:8 h, light:dark photoperiod and provided with 10% sugar water, as described previously.^31 For the experiment, 3-5-day-old females were used, and the assay was modified based on our previous protocol.^33 A group of six female mosquitoes were cold-anesthetized on a Petri dish placed on ice, where both wings were removed. Mosquitoes became active when the plate was removed from the ice. The dissection dish was filled with Ringer's solution (150 mmol L^−1 NaCl, 25 mmol L^−1 HEPES, 3.4 mmol L^−1 KCl, 7.5 mmol L^−1 NaOH, 1.8 mmol L^−1 NaHCO3. 1 mmol L^−1 MgSO4, 1.7 mmol L^−1 CaCl2 and 5 mmol L^−1 glucose, pH 7.1) at room temperature. To dissect the hindgut of each mosquito, their head and thorax were removed with forceps, and the abdomen was submerged in the Ringer solution. The hindgut, ovaries and Malpighian tubules (MTs), and midgut were taken out by pulling the last segment of the abdomen under the Ringer solution. Then, the ovaries and the majority of the midgut were removed using scissors leaving the intact hindgut and MTs. The isolated tissue was transferred with forceps, gripping on the cuticle of the last segment, into a drop of 30 μL Ringer solution in a 12-well-plate (Greiner Bio-One®, 665,102). After six mosquitoes were dissected as a group, paraffin oil (1-2 mL) was added to each well to cover the saline. The cuticle of the last abdominal segment was drawn out of the Ringer solution into the oil for better observation of the hindgut contraction. The tissues were filmed using an Olympus SZ60 camera (Olympus America Inc., Center Valley, PA, USA) mounted on a dissecting microscope.
First, the hindgut basal contraction rate was recorded by filming each tissue for 60 s. […] After 5 min of incubation at room temperature, 15 μL kinin agonist analog 1728 solution (4×in Ringer solution) was added to the Ringer solution to reach a final concentration of 10 μmol L^−1. After 1 h of incubation, the tissue was filmed again for 60 s.
The contractible hindgut of mosquito consists of a funnel-shaped pylorus located immediately after the posterior midgut, followed by a long, coiled ileum, and a bulbous colon which contains the rectal pads, and a tapering rectal tube at the posterior end.^35 To analyze each video, the hindgut contraction number was counted by observing the contraction occurring at the junction between the pyloric sphincter and the most anterior ileum. The hindgut contraction rate was expressed as the number of contractions observed over 60 s. The fold change in contraction rate was calculated as the contraction rate estimated at 1 h post treatment divided by the basal rate estimated before the treatment with the chemicals. Each treatment was repeated with 30 female mosquitoes independently. All statistical analyses were done by PRISM software (v8, GraphPad). The differences in fold-change of the contraction rates among treatments were analyzed using the nonparametric Kruskal-Wallis test, followed by the Dunn's multiple comparison test. […].

[5] = target: T1, recombinant tick kinin receptor (BMLK3) (Rhipicephalus microplus, UniProt Q9NHA4); assay: dual-addition intracellular calcium fluorescence assay, antagonist dose-response (inhibition of Rhimi-K-1 response in BMLK3 cells); type: cell-based; settings: FIG. 6 SAR analysis; BMLK3 CHO-K1 cells stably expressing R. microplus kinin receptor; agonist Rhimi-K-1 (QFSPWGamide) 1 μmol L^−1
T1 construct: intracellular calcium fluorescence; agonist Rhimi-K-1 (QFSPWGamide)
T1 sequence (Q9NHA4 1-397): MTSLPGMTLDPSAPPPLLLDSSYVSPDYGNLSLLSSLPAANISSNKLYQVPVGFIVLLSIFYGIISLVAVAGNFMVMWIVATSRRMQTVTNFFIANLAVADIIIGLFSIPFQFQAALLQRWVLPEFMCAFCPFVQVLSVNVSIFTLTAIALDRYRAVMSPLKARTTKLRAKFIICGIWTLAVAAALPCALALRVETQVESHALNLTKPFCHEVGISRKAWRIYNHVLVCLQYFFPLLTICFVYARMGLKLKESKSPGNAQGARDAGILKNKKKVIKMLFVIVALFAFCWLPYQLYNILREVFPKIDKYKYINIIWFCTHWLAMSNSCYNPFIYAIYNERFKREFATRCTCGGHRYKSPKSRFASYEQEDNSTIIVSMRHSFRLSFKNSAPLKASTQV

[6] = system: Rhodnius prolixus hindgut; settings: cited from earlier work
[7] = system: Drosophila melanogaster renal organs; settings: cited from earlier work
[8] = system: Aedes aegypti kinin receptor; assay: Calcium fluorescence assay on recombinant mosquito kinin receptor (IGKN G12 cell line); type: cell-based; settings: for calcium response, in words: 100 μmol L^−1
Protocol: Three identified potent small molecule antagonists, and as control, a small molecule of very low antagonistic activity, all identified as part of this study, were tested in the calcium fluorescence assay, as above, for their activity on the cell line expressing the Aedes aegypti kinin receptor (IGKN G12 cell line). Receptor cloning, expression and clonal cell selection were as described previously.^3′ The recombinant tick kinin receptor (BMLK3) was tested simultaneously as positive control for the assay. BMLK3 and IGKN G12 cells were seeded in 96-well-plates (Greiner Bio-One®, B/C 655097) at a density of […] cells in 100 μL maintenance medium. Cells were prepared as described above for the calcium fluorescence assay; and each well was added with 90 μL assay buffer (see Section 2.3, HHBS plus dye efflux inhibitor).
For each compound three 10× concentrations (100, 300, 1000 μmol L^−1) were prepared and 10 μL of each was added manually into one well of each cell line for a final concentration of 10, 30 and 100 […]. After 5 min incubation at room temperature, a kinin receptor agonist peptide, the kinin agonist analog 1728^28 [[Aib]FF[Aib]WGamide, RoyoBiotech, Shanghai, China] was added manually (50 μL; 3× stock in HHBS) into each well for a final concentration of 1 μmol L^−1. The cellular calcium response in RFU was immediately recorded continuously for 60 s with 3 s intervals between reads using a Clariostar plate reader. The average RFU of these 20 reads represented the raw response to each treatment. Three independent replicates were run for each concentration and compound. The percentage of signal reduction with respect to the control that contained solvent and the kinin agonist analog 1728 was calculated using the average RFU registered for the treatment with each small molecule divided by the average RFU recorded for the control (100%). Data analyses were performed with the percentage reduction of the three independent replicates. PRISM (Graphpad, San Diego. CA, USA) was utilized for analysis and graphics.

[9] = Table 5 analogs, V/O cells, read-out: V/O antagonist IC50
[10] = summary of 36 validated antagonist hits, vector-only cell (V/O)

| Compound | Inhibitory Efficacy at 12 μM ([1]; BMLK3 cells) [%] | EC50 ([2]; Table 5 analogs, V/O cells) [µM] | IC50 [2, 9] [µM] | EC50 [2, 10] [µM] | IC50 [2, 10] [µM] | HDF average % growth inhibition [3] [%] | effect on hindgut contraction elicited by 1728, in words [4] | calcium response, in words [8] | also measured |
| --- | --- | --- | --- | --- | --- | --- | --- | --- | --- |
| Cc1ccc(S(=O)(=O)NN2C(=O)C(=Cc3cccc4ccccc34)SC2=S)cc1 [SACC-0412062] | 50.31 | 6.26 | 7.36 | 6.26 | 7.36 | 8.117 | inhibited the increased rate of muscle contraction | – | – |
| C1C1═CC═C(\C═C2\SC(═O)N(NS(═O)(═O)C3═CC═CC═C3)C2═S)C═C1 [SACC-0064443] | – | – | – | – | – | – | – | – | IC50 [5]: 0.66 µM |
| [Aib]FF[Aib]WGamide [Molecule 1728] | – | – | – | – | – | – | – | – | increase of contraction rate, solvent plus 1728 group ([4]; 1728 10 μmol L^−1, solvent control of SACC-0412062 test (FIG. 8B), 1 h): two-fold; concentration inducing hindgut contraction [6]: 10^−16 M; increase of fluid secretion from renal organs, in words ([7]; 10^−7 M range): not active; concentration active in diuretic assays [7]: 25 µM |
| CCOc1cc(C=C2SC(=S)N(NS(=O)(=O)c3ccc(C)cc3)C2=O)ccc1O [SACC-0412066] | 79.17 | > 25 | 1.04 | > 25 | 1.04 | 2.02 | inhibited the increased rate of muscle contraction | elicited a strong calcium response | inhibition of response compared to control ([8]; 30 μmol L^−1, 1728 1 μmol L^−1): 84%; hindgut contraction rate, in words ([4]; compound 10 μmol L^−1, 1 h after 1728 (data not shown)): no increase in the hindgut contraction rate was observed; effect on hindgut contraction elicited by 1728, in words ([4]; listed as -10412066): significantly reduced the mobility of the hindgut; effect on hindgut contraction elicited by 1728, in words ([4]; listed as SACC-0412006): did not observe any increase in the hindgut contraction rate |
| Cc1ccc(S(=O)(=O)NN2C(=O)C(=Cc3ccc(C(=O)O)cc3)SC2=S)cc1 [SACC-0412064] | 0.31 | 17.4 | 1.47 | 17.4 | 1.47 | −7.067 | did not differ | did not antagonize the calcium response | activity type in dose-response assay, in words ([1]; BMLK3 cells, Rhimi-K-1 1 μmol L^−1): very weak partial antagonists; EC50 ([1]; Table 5 analogs, first addition): 13 µM; IC50 ([1]; Table 5 analogs, second addition Rhimi-K-1 1 μmol L^−1, read-out: BMLK3 antagonist IC50): 0.118 µM; EC50 ([1]; summary of 36 validated antagonist hits, BMLK3 cells): 13 µM; IC50 ([1]; summary of 36 validated antagonist hits, BMLK3 cells, read-out: BMLK3 IC50): 0.118 µM |
